In assay [1] the target is T1, c-Met (Homo sapiens, UniProt P08581). Put plainly: Z'-LYTE Tyr6 peptide kinase assay, single concentration. The format is biochemical.
In assay [2] the target is T1, c-Met. Put plainly: Z'-LYTE Tyr6 peptide kinase assay, […] ATP, purified c-Met kinase domain. The class given is biochemical.

T1 sequence (P08581 956-1390 limits assumed): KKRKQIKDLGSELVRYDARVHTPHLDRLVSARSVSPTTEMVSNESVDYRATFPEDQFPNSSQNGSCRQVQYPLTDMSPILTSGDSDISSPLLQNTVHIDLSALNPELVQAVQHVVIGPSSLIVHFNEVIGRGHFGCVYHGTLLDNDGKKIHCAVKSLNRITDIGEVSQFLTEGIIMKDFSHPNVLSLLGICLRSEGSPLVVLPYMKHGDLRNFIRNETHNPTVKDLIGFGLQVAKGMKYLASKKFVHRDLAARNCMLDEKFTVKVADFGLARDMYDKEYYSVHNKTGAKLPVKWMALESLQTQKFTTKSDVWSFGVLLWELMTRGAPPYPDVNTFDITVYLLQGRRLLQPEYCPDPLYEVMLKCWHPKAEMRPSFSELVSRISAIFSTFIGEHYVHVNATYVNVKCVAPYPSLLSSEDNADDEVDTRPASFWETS

On to `C/C=C(/C=O)[C@@H](CC=O)CC(=O)OCCc1ccc(O)cc1` [oleocanthal], for which the “Z'-LYTE Tyr6 peptide kinase assay, single concentration (53% reduction at 5 μM),” value on c-Met [1] was 53% reduction at 5.

Consider `Cc1cc(O)c(C=O)c2c1C(=O)Oc1c(C)c(O)c3c(c1O2)C(O)OC3=O` (centres unmarked) [norstictic acid], for which the IC50 on c-Met [2] stood at 6.5 µM.

As a reminder, the IC50 is the midpoint of a concentration-inhibition curve.
